Experimental data: paper PMC6335623, “A computationally designed binding mode flip leads to a novel class of potent tri-vector cyclophilin inhibitors” (Chemical Science, 2018)
Like-named read-outs stand apart in the source and are kept apart here. Values belong to the molecule of their own block, whether it stands above or below them.

Experiments:
CypA = target: T1, CypA (Homo sapiens, UniProt P62937); experiment: Isothermal titration calorimetry (ITC), ester series, direct titration; settings: 25 °C, 50 mM phosphate buffer pH 6.5; single experiments; uncertainties from fit to one-site binding model; n.b. = no binding observed at the maximum concentration tested
T1 construct: His-tag (TEV-cleavable) (cleaved yes); made in house; host or cells: E. coli C41 BL21(DE3) ('C41 BL21(DH3)' [sic]); plasmid from the Edinburgh Protein Production Facility
T1 sequence (P62937 whole entry): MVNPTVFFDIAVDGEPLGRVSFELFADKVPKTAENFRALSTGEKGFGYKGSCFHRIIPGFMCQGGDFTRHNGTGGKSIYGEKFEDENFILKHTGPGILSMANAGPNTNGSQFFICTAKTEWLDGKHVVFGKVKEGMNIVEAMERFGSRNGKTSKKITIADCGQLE
Protocol: The molecular weights of HisCypA and free CypA are 20.893 and 18.070 kDa, respectively. Protein concentration was determined by measuring the absorbance at 280 nm and the extinction coefficients 14440 and 8480 M-1 cm-1, respectively.
Isothermal Titration Calorimetry (ITC)
ITC1 – Ester series: Instrument and experimental setup
All ITC experiments for the ester series compounds were carried out at 25 °C on a MicroCal Auto iTC200 (GE Healthcare) instrument. The buffer used in the titrations of the compounds belonging to the ester series (1 – 12) was 50 mM phosphate buffer, pH 6.5 and the concentration of DMSO was 2% v/v for all the compounds, unless otherwise stated in Table S1. Final compound solutions were heated to 65 °C and/or sonicated prior to the experiment. Each experiment consisted of an initial injection of 0.4 μL followed by nineteen 2 μL injections and in most of cases for these compounds, the “continue injections” protocol was used leaving the cell intact and performing a second series of titrations using the above protocol to achieve saturation. Control experiments were performed, where each compound was titrated into buffer and when small amount of heat was detected due to heat of dilution, it was subtracted when processing the data using a linear fit method. A more detailed setup for each experiment is depicted in Table S6. In all cases the first injection was omitted from the data processing. All data were analysed using the MicroCal PEAQ-ITC […]
(Wiseman constant) is very small, a fixed stoichiometry to 1 was applied during the non-linear regression of […]
the duration of the experiment.

MDA-MB-231_NLG cells = experiment: cells; assay type: cell-based; settings: 120 hours treatment
Protocol: The tumorigenic, breast, epithelial adenocarcinoma cell lines MDA-MB-231_NLG and the normal, lung fibroblast cell line, IMR90 were cultured as adherent monolayers in DMEM with 10% volume FBS in an atmosphere with 5% CO2 and 95% humidity and were routinely sub-cultured upon reaching 80-90% confluence. MDA-MB-231_NLG cells are a variant of MDA-MB-231 cells, expressing nuclear-restricted green fluorescent protein; they were produced by stable transduction of MDA-MB-231 cells with NucLight Green lentivirus (Essen Bioscience), following the manufacturer’s protocol.
Image-based Cell Viability Assays
Cells were seeded at a density of 500 cells per well in cell culture medium in 384-well cell culture plates and allowed to adhere overnight (about 16 hours), incubated in a humidified atmosphere with 5% CO2.
Subsequently, cell culture medium was refreshed, supplemented with Draq 7 (3µM final concentration) and test compound at the indicated concentrations with three wells being treated for each condition tested. Cells were then returned to the cell culture incubator and imaged with a 10X objective every 3 hours for 120 hours using an IncuCyte ZOOM microscope from Essen Bioscience.
Using the IncuCyte ZOOM software, custom image analysis procedures were developed and applied for each cell line to determine cell confluency, cell number and number of dead cells over the time course of the experiment. Phase contrast was used to determine relative area of each image occupied by cells (confluency), while green nuclear counts were used to determine number of MDA-MB-231_NLG cells and red nuclear counts were used to determine number of dead (Draq7-positive) cells. […]
growth inhibition) being determined by fitting non-linear regression curves to the data and extrapolating the required values using GraphPad Prism 6. Statistical analyses in cell viability assays to compare the effect of compound treatment to treatment with vehicle were performed using GraphPad Prism 6 (2-way ANOVA with Bonferroni correction post hoc).

His-CypB = target: T2, His-CypB (Homo sapiens, UniProt P23284); experiment: biochemical; assay type: binding; settings: 25 °C, mean ± 1σ from three repeat experiments; read-out: Kd (SPR) CypB
T2 construct: made in house; host or cells: E. coli C41 BL21(DE3) ('C41 BL21(DH3)' [sic]); plasmid from the Edinburgh Protein Production Facility
T2 sequence (P23284 34-216): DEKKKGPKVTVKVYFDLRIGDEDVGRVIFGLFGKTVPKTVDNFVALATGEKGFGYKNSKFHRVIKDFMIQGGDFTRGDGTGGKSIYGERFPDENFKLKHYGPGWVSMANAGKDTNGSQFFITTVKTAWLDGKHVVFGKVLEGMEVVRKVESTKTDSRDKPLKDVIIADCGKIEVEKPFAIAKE
Protocol: (§1) injection protocol (Fig. S9B). […]
(§2) using the same instrument parameters was performed (Fig. S9A).
(§3) Surface Plasmon Resonance (SPR)
(§4) SPR1 – SPR equipment and reagents
(§5) SPR measurements were performed on a BIAcore T200 instrument (GE Healthcare). Ni2+- nitrilotriacetic acid (NTA) sensor chips, 1-ethyl-3-(3- diaminopropyl) carbodiimide hydrochloride (EDC) and Nhydroxysuccinimide (NHS) were purchased from GE Healthcare.
(§6) SPR2 – Immobilization and covalent stabilizations of His-Cyps
(§7) Pure His-cyclophilins were immobilized and covalently stabilized on the NTA sensor chip according to the protocol described [Wear et al., 2017, FEBS OpenBio], using 200 nM concentrations of each protein, in Running Buffer (PBS, pH 7.4; 0.05% surfactant P20, 2% v/v ethanol; 50 µM EDTA), at 30 µl min-1 with 60 second contact times on the activated NTA surfaces.
(1 picture or pasted object on this page, not shown here) […]
Buffer (PBS, pH 7.4, 50 µM mM EDTA; 0.05 % v/v surfactant P20; 2 % v/ v ethanol), were injected over the sensor surface, at 100 µl.min -1 with a 90 s contact time and a 90 s dissociation time. […] The apparent on-rate (k+) and off-rate (k-) constants and the equilibrium dissociation constant (K d) were calculated from reference corrected sensorgrams by global fitting of a 1:1 binding model, including a mass transport term, using analysis software ( v.2.02, GE Healthcare) provided with the BIAcore T200 […]

His-CypD = target: T3, His-CypD (Homo sapiens, UniProt P30405); experiment: Surface plasmon resonance (SPR) kinetic titration, BIAcore T200; assay type: binding; settings: 25 °C, mean ± 1σ from three repeat experiments
T3 construct: made in house; host or cells: E. coli C41 BL21(DE3) ('C41 BL21(DH3)' [sic]); plasmid from the Edinburgh Protein Production Facility
T3 sequence (P30405 30-207): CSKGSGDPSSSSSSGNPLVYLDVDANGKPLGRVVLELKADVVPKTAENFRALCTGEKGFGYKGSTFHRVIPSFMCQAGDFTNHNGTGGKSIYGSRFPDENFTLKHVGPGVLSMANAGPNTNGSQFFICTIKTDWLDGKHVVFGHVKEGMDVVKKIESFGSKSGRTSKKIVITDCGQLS
Protocol: as §1, §2, §3, §4, §5, §6, §7
(§8) (1 picture or pasted object on this page, not shown here)
(§9) Specific surface protein activity was assayed by passing saturating […]
(§10) SPR3 – Kinetic titration experiments
(§11) Buffer (PBS, pH 7.4, 50 µM mM EDTA; 0.05 % v/v surfactant P20; 2 % v/ v ethanol), were injected over the sensor surface, at 100 µl.min -1 with a 90 s contact time and a 90 s dissociation time. The sensor surface was regenerated between experiments by dissociating any formed complex in running buffer for at least 1,200 seconds. The apparent on-rate (k+) and off-rate (k-) constants and the equilibrium dissociation constant (K d) were calculated from reference corrected sensorgrams by global fitting of a 1:1 binding model, including a mass transport term, using analysis software ( v.2.02, GE Healthcare) provided with the BIAcore T200 […]
(§12) Buffer (PBS, pH 7.4, 50 µM mM EDTA; 0.05 % v/v surfactant P20; 2 % v/v ethanol), were injected over the sensor surface, at 100 µl.min-1 with a 15 s contact time and a 600 s dissociation time. The sensor surface was […]

His-CypA = target: T4, His-CypA (Homo sapiens, UniProt P62937); experiment: as above; assay type: binding
T4 construct: made in house; host or cells: E. coli C41 BL21(DE3) ('C41 BL21(DH3)' [sic]); plasmid from the Edinburgh Protein Production Facility
T4 sequence (P62937 whole entry): as the sequence (P62937 whole entry) above
Protocol: as §1, §2, §3, §4, §5, §6, §7, §8, §9, §10, §11, §12

Kd (CypA): 266 ± 3 µM
Structure (SMILES): CCCN(Cc1ccc(N)cc1)C(=O)NCC(=O)OCC [Compound 4]

CypA Kd (ITC) (CypA): very weak binders | Kd (CypA): 993 ± 20 µM
Structure (SMILES): CCOC(=O)CNC(=O)N(CC#N)Cc1ccc(N)cc1.Cl [Compound 6]

CypA Kd (ITC) (CypA): n.b and n.b. and very weak binders
Structure (SMILES): CCOC(=O)CNC(=O)N(Cc1ccc(N)cc1)CC1CC1.Cl [Compound 7]

CypA Kd (ITC) (CypA): n.b and n.b. and inactive
Structure (SMILES): CCOC(=O)CNC(=O)N(Cc1ccc(N)cc1)C1CCNCC1.Cl.Cl [Compound 11]

GI50, growth inhibition (MDA-MB-231_NLG cells; mean with 95% CI [lower limit, upper limit], three independent experiments): inactive
Structure (SMILES): Cl.Cn1cc(CN(Cc2ccc(N)cc2)C(=O)NCC(=O)N2CCCC2c2ccccc2Br)nn1 (stereo not drawn) [Compound 14]

Further lines, the molecule ahead of its results:

Structure (SMILES): CCOC(=O)CNC(=O)N(Cc1ccc(N)cc1)C(C)C.Cl [Compound 3]
CypA Kd (ITC) (CypA): n.b and n.b. and inactive

Structure (SMILES): C#CCN(Cc1ccc(N)cc1)C(=O)NCC(=O)N1CCCC1c1ccccc1Br (stereo not drawn) [Compound 13]
cell death (dead cells) (MDA-MB-231_NLG cells): Negligible cell death | GI50 (MDA-MB-231_NLG cells; Homo sapiens, mean with 95% CI [lower limit, upper limit], three independent experiments, read-out: GI50, growth inhibition): 5.13 µM | Kd (His-CypB): 1.4 ± 0.4 µM | Kd (His-CypD): 0.2 ± 0.1 µM | Kd (His-CypA; 25 °C, mean ± 1σ from three repeat experiments, read-out: Kd (SPR) CypA): 3.2 ± 1.3 µM

Structure (SMILES): CCOC(=O)Cn1cc(CN(Cc2ccc(N)cc2)C(=O)NCC(=O)N2CCCC2c2ccccc2Br)nn1 (stereo not drawn) [Compound 16]
Kd (His-CypB): 1.9 ± 0.9 µM | Kd (His-CypD): 1 ± 0.4 µM | Kd (His-CypA): 4.3 ± 1 µM
